Literature values as cited in patent US20120083452A1, “Topical Anesthetic Uses of Szeto-Schiller Peptides” (priority 2010, published 2012).
Square brackets hold non-standard residues; d marks the D form. Ends that are not written are not given here. Dmt = Cc1cc(O)cc(C)c1C[C@H](N)C(=O)O

Tests used:
[1] = tested on: mice; conditions: mice studies
[2] = compared with SS-02
[3] = tested on: isolated mitochondria; conditions: for MPP+-induced inhibition of oxygen consumption: MPP+ (1-methyl-4-phenylpyridium)
[4] = tested on: LDL; conditions: compared with SS-02

Row | Substance | treatment of Parkinson's Disease (PD) or Amyotrophic Lateral Sclerosis (ALS) [1] | scavenging H2O2 [2] | MPP+-induced inhibition of ATP production [3] | MPP+-induced mitochondrial swelling [3] | MPP+-induced inhibition of oxygen consumption [3] | inhibiting LDL oxidation [4]
1 | Phe-D-Arg-Phe-Lys-NH2 (F[dR]FK-NH2; N-terminus assumed; SMILES N=C(N)NCCC[C@@H](NC(=O)[C@@H](N)Cc1ccccc1)C(=O)N[C@@H](Cc1ccccc1)C(=O)N[C@@H](CCCCN)C(N)=O) [SS-20] | may be effective | eliminated the scavenging ability | prevented | prevented | prevented | 
2 | D-Arg-2′,6′-Dmt-Lys-Phe-NH2 ([dR][Dmt]KF-NH2) [SS-31] | may be effective | as effective as SS-02 | prevented | prevented | prevented | as effective as SS-02
